Data published in patent US9095631B2, “Tetrahydroisoquinoline compounds for use in the diagnosis and treatment of neurodegenerative diseases” (UNIVERSITA DEGLI STUDI DI BARI “ALDO MORO”, priority 2011, dated 2015).
pEC50: −log10 of the molar value.

Experiments:
P-gp [1] = target: T1, P-gp (Homo sapiens, UniProt P08183); test: Inhibition of the transport of Calcein-AM on MDCK cell lines overexpressing MDR proteins (P-gp); format: cell-based; design: expressed in transfected cells; host or cells: MDCK; conditions: MDCK cells overexpressing P-gp
Method: (§1) 3) Inhibition of the Transport of Calceina-AM and of Rhodamine-123 on MDCK Cell Lines Overexpressing MDR Proteins.
(§2) In this assay the inhibition of the transport of a BCRP fluorescent substrate, Rhodamina-123, or of a P-gp or MRP1 profluorescent substrate, Calcein-AM, is determined.
(§3) Calcein-AM, entering the cell membrane is […] by citosolic esterase to fluorescent calcein (that is not a P-gp substrate) leading to a fluorescent signal. Therefore, the inhibition of the efflux pump will be directly correlated to the fluorescent signal due to the cell accumulation of Calcein-AM (see Feng, B., et al., 2008; Drug Metab. Dispos. 36, 268-275).

MRP1 = target: T2, MRP1 (Homo sapiens, UniProt P33527); test: Inhibition of the transport of Calcein-AM on MDCK cell lines overexpressing MDR proteins (MRP1); format: cell-based; conditions: for pEC50: Calcein-AM transport inhibition, MDCK cells overexpressing MRP1
T2 construct: expressed in transfected cells; host or cells: MDCK
Method: as §1, §2, §3

P-gp [2] = target: T1, P-gp; test: Apparent Permeability Determination (Papp) on Caco-2 cells overexpressing P-gp; format: in vitro ADME; conditions: ratio Papp-BA/Papp-AB, 18-20 transported by P-gp, 2-18 modulator, 1-2 not transported
Method: 1) Apparent Permeability Determination (Papp)
This assay is carried out on colon adenocarcinoma cell line (Caco-2) overexpressing P-gp, a cell model usually employed for the permeability study. In this experiment Apparent Permeability (Papp) is determined both in basolateral/apical direction (Papp-BA) and in apical/basolateral direction (Papp-AB). The BA/AB ratio allow to discriminate if a ligand is transported by P-gp (BA/AB ratio between 18 and 20), or not (BA/AB ratio between 1 and 2). For BA/AB ratio between 2 and 18 compounds can be classified as modulators (see Polli, J. V et al., 2001, J. Pharmacol. Exp. Ther. 299, 620-628).

T1 sequence (P08183 whole entry): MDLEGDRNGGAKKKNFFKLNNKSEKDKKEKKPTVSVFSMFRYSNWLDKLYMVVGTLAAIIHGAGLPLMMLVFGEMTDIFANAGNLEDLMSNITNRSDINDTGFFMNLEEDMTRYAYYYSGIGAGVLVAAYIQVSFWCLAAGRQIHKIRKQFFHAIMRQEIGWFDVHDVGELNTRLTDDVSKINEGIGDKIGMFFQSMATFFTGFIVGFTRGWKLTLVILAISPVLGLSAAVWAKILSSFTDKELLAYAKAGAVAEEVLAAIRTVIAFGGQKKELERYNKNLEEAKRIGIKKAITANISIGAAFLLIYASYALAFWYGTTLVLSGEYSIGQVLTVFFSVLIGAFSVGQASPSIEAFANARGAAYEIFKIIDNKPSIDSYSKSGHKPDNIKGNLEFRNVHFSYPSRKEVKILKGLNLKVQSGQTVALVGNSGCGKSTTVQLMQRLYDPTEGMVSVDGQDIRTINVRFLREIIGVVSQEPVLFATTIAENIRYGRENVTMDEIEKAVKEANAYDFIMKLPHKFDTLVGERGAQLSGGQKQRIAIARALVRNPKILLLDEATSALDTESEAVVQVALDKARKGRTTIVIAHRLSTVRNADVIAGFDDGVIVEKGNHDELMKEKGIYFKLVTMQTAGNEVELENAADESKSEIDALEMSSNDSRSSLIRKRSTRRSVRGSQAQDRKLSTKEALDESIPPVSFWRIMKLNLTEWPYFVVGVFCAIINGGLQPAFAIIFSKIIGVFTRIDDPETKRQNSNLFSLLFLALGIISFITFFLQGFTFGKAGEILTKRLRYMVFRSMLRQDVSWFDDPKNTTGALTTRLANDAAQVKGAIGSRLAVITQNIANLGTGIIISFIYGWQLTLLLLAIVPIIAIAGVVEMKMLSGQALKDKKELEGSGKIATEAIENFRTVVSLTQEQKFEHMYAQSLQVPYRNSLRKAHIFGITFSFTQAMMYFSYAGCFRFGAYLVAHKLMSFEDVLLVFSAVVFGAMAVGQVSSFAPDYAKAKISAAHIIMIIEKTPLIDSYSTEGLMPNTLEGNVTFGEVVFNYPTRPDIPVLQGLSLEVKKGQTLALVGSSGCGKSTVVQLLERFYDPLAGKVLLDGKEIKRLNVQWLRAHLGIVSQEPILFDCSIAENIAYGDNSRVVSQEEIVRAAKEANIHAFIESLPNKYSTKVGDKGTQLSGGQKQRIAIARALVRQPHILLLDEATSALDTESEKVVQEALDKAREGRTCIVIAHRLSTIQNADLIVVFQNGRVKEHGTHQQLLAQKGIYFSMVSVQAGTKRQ
T2 sequence (P33527 whole entry): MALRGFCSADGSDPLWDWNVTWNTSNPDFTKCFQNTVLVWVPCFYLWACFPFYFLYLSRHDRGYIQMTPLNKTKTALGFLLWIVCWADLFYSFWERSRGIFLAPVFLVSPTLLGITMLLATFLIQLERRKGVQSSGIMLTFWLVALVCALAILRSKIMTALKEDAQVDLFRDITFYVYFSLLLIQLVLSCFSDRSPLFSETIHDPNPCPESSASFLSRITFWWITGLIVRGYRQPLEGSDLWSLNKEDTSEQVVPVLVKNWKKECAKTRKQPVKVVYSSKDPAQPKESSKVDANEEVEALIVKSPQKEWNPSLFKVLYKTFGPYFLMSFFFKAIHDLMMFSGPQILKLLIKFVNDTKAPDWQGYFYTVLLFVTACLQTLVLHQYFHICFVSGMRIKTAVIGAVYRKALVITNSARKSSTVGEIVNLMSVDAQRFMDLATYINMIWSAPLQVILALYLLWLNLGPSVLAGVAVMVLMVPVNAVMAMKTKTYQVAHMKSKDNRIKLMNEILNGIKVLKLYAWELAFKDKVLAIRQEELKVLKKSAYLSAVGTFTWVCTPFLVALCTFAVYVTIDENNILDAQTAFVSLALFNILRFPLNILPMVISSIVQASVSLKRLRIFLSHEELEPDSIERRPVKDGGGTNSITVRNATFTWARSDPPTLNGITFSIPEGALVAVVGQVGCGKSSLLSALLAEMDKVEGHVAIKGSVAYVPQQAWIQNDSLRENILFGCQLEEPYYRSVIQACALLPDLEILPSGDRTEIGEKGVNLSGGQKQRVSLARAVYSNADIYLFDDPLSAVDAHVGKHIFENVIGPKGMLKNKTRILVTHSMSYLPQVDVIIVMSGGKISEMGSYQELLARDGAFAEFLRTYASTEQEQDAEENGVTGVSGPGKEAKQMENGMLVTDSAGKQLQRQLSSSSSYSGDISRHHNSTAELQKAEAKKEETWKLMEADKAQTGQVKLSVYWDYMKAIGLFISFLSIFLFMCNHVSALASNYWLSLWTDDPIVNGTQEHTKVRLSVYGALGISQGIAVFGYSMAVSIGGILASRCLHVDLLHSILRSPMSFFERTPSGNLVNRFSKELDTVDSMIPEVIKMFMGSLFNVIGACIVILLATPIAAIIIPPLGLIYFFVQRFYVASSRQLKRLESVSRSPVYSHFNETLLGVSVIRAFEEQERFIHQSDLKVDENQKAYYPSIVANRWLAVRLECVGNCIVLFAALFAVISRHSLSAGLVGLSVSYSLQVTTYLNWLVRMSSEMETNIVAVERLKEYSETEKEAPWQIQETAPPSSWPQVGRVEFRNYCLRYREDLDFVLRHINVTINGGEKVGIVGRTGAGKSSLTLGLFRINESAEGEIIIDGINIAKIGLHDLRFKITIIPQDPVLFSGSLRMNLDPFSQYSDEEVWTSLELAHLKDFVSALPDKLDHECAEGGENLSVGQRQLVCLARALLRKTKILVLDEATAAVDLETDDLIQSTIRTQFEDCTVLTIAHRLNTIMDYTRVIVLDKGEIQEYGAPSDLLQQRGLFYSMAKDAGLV

| pEC50 (P-gp [1]) | pEC50 (MRP1) | efflux ratio (P-gp [2]) | activity towards MRP1 (in words) (MRP1) | Compound |
| --- | --- | --- | --- | --- |
| 5.43 | < 4.00 | 6 |  | COc1cc2c(cc1OC)CN(Cc1csc(-c3ccc4cc(Br)ccc4c3)n1)CC2 [R2 = H, R1 = Br, X = S, (2-((2-(2-Bromonaftalen-6-il)thiazol-4-il)metil)-1,2,3,4-tetraidro-6,7-dimetossiisochinolina] |
| 5.28 | 4.50 | 0.8 |  | COc1cc2c(cc1OC)CN(Cc1coc(-c3ccc4cc(F)ccc4c3)n1)CC2 [R2 = H, R1 = F, X = O, 2-((2-(2-fluoronaphthalen-6-yl)oxazol-4-yl)methyl)-1,2,3,4-tetrahydro-6,7-dimethoxyisoquinoline] |
| 5.57 | 4.48 | 0.4 |  | COc1cc2c(cc1OC)CN(Cc1coc(-c3ccc4ccccc4c3)n1)CC2 [R2 = H, R1 = H, X = O, 1,2,3,4-tetrahydro-6,7-dimethoxy-2-((2-(naphthalen-6-yl)oxazol-4-yl)methyl)isoquinoline] |
| 6.00 | < 4.00 | 6 |  | COc1ccc2cc(-c3nc(CN4CCc5cc(OC)c(OC)cc5C4)cs3)ccc2c1 [R2 = H, R1 = OCH3, X = S, 1,2,3,4-tetrahydro-6,7-dimethoxy-2-((2-(2-methoxynaphthalen-6-yl)thiazol-4-yl)methyl)isoquinoline] |
| 5.55 | < 4.00 | 1.6 | inactive | COc1cc2c(cc1OC)CN(Cc1coc(-c3ccc4cc(O)ccc4c3)n1)CC2 [R2 = H, R1 = OH, X = O, 2-((2-(2-hydroxynaphthalen-6-yl)oxazol-4-yl)methyl)-1,2,3,4-tetrahydro-6,7-dimethoxyisoquinoline] |
